The source made the active and inactive calls. The rule behind the calls is not given here.
Key:
Vitis vinifera [1] = experiment: Induction of pterostilbene accumulation in Vitis vinifera cv. Cabernet Sauvignon foliar cuttings assessed per dry weight of plant at 0.5 g/L measured after 24 to 72 hr post dose by fluorimetry; assay type: functional
Vitis vinifera [2] = experiment: Induction of delta-viniferin accumulation in Vitis vinifera cv. Cabernet Sauvignon foliar cuttings assessed per dry weight of plant at 0.5 g/L measured after 72 hr post dose by fluorimetry; assay type: functional
Vitis vinifera [3] = experiment: Induction of delta-viniferin accumulation in Vitis vinifera cv. Cabernet Sauvignon foliar cuttings assessed per dry weight of plant at 0.5 g/L measured after 24 hr post dose by fluorimetry; assay type: functional
Vitis vinifera [4] = experiment: Induction of epsilon-viniferin accumulation in Vitis vinifera cv. Cabernet Sauvignon foliar cuttings assessed per dry weight of plant at 0.5 g/L measured after 24 hr post dose by fluorimetry; assay type: functional
Vitis vinifera [5] = experiment: Induction of trans-resveratrol accumulation in Vitis vinifera cv. Cabernet Sauvignon foliar cuttings assessed per dry weight of plant at 0.5 g/L measured after 24 to 72 hr post dose by fluorimetry; assay type: functional
Vitis vinifera [6] = experiment: Induction of trans-piceid accumulation in Vitis vinifera cv. Cabernet Sauvignon foliar cuttings assessed per dry weight of plant at 0.5 g/L measured after 72 hr post dose by fluorimetry; assay type: functional
Erysiphe necator [7] = experiment: Fungicidal activity against Erysiphe necator infected 72 hr compound pre-treated grapevine leaf disks assessed as reduction in fungal colonization measured 14 days post fungal inoculation; assay type: functional; parameters: scale not given: the % may be the effect or the level left
Vitis vinifera [8] = experiment: Induction of trans-stilbenes in Vitis vinifera cv. Cabernet Sauvignon foliar cuttings at 0.5 g/L measured after 20 to 80 hr post dose by fluorimetry; assay type: functional, organism-based
Erysiphe necator [9] = experiment: Fungicidal activity against Erysiphe necator infected 72 hr compound pre-treated grapevine foliar cuttings assessed as reduction in powdery mildew infection measured 14 days post fungal inoculation; assay type: functional; parameters: scale not given: the % may be the effect or the level left
Vitis vinifera [10] = experiment: Increase in polygalacturonase-inhibiting protein gene expression in Vitis vinifera cv. Cabernet Sauvignon foliar cuttings at 0.5 g/L measured after 12 to 24 hr post dose by RTq-PCR method relative to untreated control; assay type: functional
Vitis vinifera [11] = experiment: Increase in beta-1,3- glucanase gene expression in Vitis vinifera cv. Cabernet Sauvignon foliar cuttings at 0.5 g/L measured after 12 to 24 hr post dose by RTq-PCR method relative to untreated control; assay type: functional
Vitis vinifera [12] = experiment: Increase in […] protease inhibitor gene expression in Vitis vinifera cv. Cabernet Sauvignon foliar cuttings at 0.5 g/L measured after 12 to 72 hr post dose by RTq-PCR method relative to untreated control; assay type: functional
Vitis vinifera [13] = experiment: Increase in […] class IV chitinase gene expression in Vitis vinifera cv. Cabernet Sauvignon foliar cuttings at 0.5 g/L measured after 6 hr post dose by RTq-PCR method relative to untreated control; assay type: functional
Vitis vinifera [14] = experiment: Increase in phenylalanine stilbene synthase gene expression in Vitis vinifera cv. Cabernet Sauvignon foliar cuttings at 0.5 g/L measured after 6 hr post dose by RTq-PCR method relative to untreated control; assay type: functional
Vitis vinifera [15] = experiment: Increase in phenylalanine ammonia lyase gene expression in Vitis vinifera cv. Cabernet Sauvignon foliar cuttings at 0.5 g/L measured after 6 hr post dose by RTq-PCR method relative to untreated control; assay type: functional

`O=P(O)(O)CCCl` [ETHEPHON] was tested, and the Activity (Vitis vinifera [1]) was 10 nmol/g, the Activity (Vitis vinifera [2]) was 6 nmol/g and the Activity (Vitis vinifera [3]) was 12 nmol/g. For the same compound, the Activity (Vitis vinifera [4]) was 58 nmol/g, the Activity (Vitis vinifera [5]) was 133 nmol/g and the Activity (Vitis vinifera [6]) was 312 nmol/g. For the same compound, the Activity (Erysiphe necator [7]) was 64%, the Activity (Vitis vinifera [8]) was “Active” and the Activity (Erysiphe necator [9]) was 70%. For the same compound, the “fold change (FC)” value (Vitis vinifera [10]) was 22, the “fold change (FC)” value (Vitis vinifera [11]) was 33 and the “fold change (FC)” value (Vitis vinifera [12]) was 9. The “fold change (FC)” value (Vitis vinifera [13]) was 11, the “fold change (FC)” value (Vitis vinifera [14]) was 67 and the “fold change (FC)” value (Vitis vinifera [15]) was 10.

— ChEMBL document CHEMBL3045251, “Ethephon elicits protection against Erysiphe necator in grapevine” (2008)
